Experimental data published in patent US9611249B2, “1H-indazole-3-carboxamide compounds as glycogen synthase kinase 3 beta inhibitors” (AZIENDE CHIMICHE RIUNITE ANGELINI FRANCESCO A.C.R.A.F. …, priority 2012, dated 2017).

Tests used:
[1] = biological target: c-Met kinase (h) (Homo sapiens (Human), UniProt P08581); experiment: Kinase selectivity panel: c-Met kinase (h); type: biochemical; conditions: 10 μM in duplicate, read-out: % inhibition of control values
Experimental: (§1) (a) Compounds 1 and 2 were tested against a panel of 60 kinases in order to assess their selectivity. The assays were chosen taking into consideration the diversity of assay families.
(§2) Tested kinases were representative of following kinase sub-families: • protein-serine/threonine kinases; • protein-tyrosine kinases; • other kinases; and • atypical kinases.
(§3) Human recombinant kinases were incubated in the presence of specific peptide substrates plus ATP for different times (10, 15, 30, 60 or 90 minutes) at 22° C. Phosphorylated substrate was detected by LANCE or HTRF technology (CISBIO, MA, USA). The compounds were tested at 10 μM in duplicate.
(§4) The results are expressed as a percentage of inhibition of control specific activity obtained in the presence of the test compounds and are reported in the following Table 5.
(§5) (b) Compounds 3, 8, 29 and 31 were tested against the same panel of 60 kinases under the same conditions described above for compounds 1 and 2.
(§6) The results are expressed as a percent of inhibition of control specific activity obtained in the presence of the test compounds and are reported in the following Table 6.

[2] = biological target: EphA4 kinase (h) (Homo sapiens (Human), UniProt P54764); experiment: Kinase selectivity panel: EphA4 kinase (h); type: biochemical; conditions: 10 μM in duplicate, read-out: % inhibition of control values
Experimental: as §1, §2, §3, §4, §5, §6

[3] = biological target: EphB2 kinase (h) (Homo sapiens (Human), UniProt P29323); experiment: Kinase selectivity panel: EphB2 kinase (h); type: biochemical; conditions: 10 μM in duplicate, read-out: % inhibition of control values
Experimental: as §1, §2, §3, §4, §5, §6

[4] = biological target: FGFR1 kinase (h) (Homo sapiens (Human), UniProt P11362); experiment: Kinase selectivity panel: FGFR1 kinase (h); type: biochemical; conditions: 10 μM in duplicate, read-out: % inhibition of control values
Experimental: as §1, §2, §3, §4, §5, §6

[5] = biological target: IGF1R kinase (h) (Homo sapiens (Human), UniProt P08069); experiment: Kinase selectivity panel: IGF1R kinase (h); type: biochemical; conditions: 10 μM in duplicate, read-out: % inhibition of control values
Experimental: as §1, §2, §3, §4, §5, §6

[6] = biological target: IRK (h) (InsR) (Homo sapiens (Human), UniProt P06213); experiment: Kinase selectivity panel: IRK (h) (InsR); type: biochemical; conditions: 10 μM in duplicate, read-out: % inhibition of control values
Experimental: as §1, §2, §3, §4, §5, §6

[7] = biological target: Ret kinase (h) (Homo sapiens (Human), UniProt P07949); experiment: Kinase selectivity panel: Ret kinase (h); type: biochemical; conditions: 10 μM in duplicate, read-out: % inhibition of control values
Chain of Ret kinase (h) (P07949 29-1114): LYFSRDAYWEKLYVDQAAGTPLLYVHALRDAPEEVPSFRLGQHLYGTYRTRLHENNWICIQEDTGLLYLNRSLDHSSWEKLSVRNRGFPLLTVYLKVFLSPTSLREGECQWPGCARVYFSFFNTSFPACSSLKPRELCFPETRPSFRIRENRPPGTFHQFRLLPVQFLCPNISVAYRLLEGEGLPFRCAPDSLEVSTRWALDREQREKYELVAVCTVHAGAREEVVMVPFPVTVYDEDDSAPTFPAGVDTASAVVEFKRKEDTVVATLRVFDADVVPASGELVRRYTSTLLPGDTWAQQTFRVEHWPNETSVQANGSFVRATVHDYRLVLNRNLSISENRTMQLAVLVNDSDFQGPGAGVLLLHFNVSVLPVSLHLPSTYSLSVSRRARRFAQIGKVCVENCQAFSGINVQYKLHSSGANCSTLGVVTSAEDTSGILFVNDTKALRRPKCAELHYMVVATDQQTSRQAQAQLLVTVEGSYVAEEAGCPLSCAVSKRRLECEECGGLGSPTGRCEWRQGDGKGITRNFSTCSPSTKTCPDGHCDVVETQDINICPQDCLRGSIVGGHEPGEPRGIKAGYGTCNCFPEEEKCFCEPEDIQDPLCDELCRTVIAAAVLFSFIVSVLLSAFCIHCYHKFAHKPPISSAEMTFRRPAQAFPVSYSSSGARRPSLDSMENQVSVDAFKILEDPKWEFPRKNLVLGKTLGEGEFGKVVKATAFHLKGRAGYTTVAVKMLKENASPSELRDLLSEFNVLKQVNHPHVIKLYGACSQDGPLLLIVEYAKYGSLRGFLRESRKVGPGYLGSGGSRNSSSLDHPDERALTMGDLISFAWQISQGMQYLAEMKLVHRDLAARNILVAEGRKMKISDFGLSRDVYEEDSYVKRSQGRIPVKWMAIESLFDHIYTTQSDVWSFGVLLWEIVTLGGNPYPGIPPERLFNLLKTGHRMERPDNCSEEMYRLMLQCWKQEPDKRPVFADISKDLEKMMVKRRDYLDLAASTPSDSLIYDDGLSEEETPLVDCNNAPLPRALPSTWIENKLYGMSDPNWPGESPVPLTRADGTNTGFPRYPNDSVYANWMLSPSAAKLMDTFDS
Experimental: as §1, §2, §3, §4, §5, §6

[8] = biological target: TRKA (h) (Homo sapiens (Human), UniProt P04629); experiment: Kinase selectivity panel: TRKA (h); type: biochemical; conditions: 10 μM in duplicate, read-out: % inhibition of control values
Experimental: as §1, §2, §3, §4, §5, §6

[9] = biological target: Abl kinase (h) (Homo sapiens (Human), UniProt P00519); experiment: Kinase selectivity panel: Abl kinase (h); type: biochemical; conditions: 10 μM in duplicate, read-out: % inhibition of control values
Experimental: as §1, §2, §3, §4, §5, §6

[10] = biological target: JAK1 (h) (Homo sapiens (Human), UniProt P23458); experiment: Kinase selectivity panel: JAK1 (h); type: biochemical; conditions: 10 μM in duplicate, read-out: % inhibition of control values
Experimental: as §1, §2, §3, §4, §5, §6

[11] = biological target: JAK2 (h) (Homo sapiens (Human), UniProt O60674); experiment: Kinase selectivity panel: JAK2 (h); type: biochemical; conditions: 10 μM in duplicate, read-out: % inhibition of control values
Experimental: as §1, §2, §3, §4, §5, §6

[12] = biological target: Fyn kinase (h) (Homo sapiens (Human), UniProt P06241); experiment: Kinase selectivity panel: Fyn kinase (h); type: biochemical; conditions: 10 μM in duplicate, read-out: % inhibition of control values
Chain of Fyn kinase (h) (P06241 whole entry): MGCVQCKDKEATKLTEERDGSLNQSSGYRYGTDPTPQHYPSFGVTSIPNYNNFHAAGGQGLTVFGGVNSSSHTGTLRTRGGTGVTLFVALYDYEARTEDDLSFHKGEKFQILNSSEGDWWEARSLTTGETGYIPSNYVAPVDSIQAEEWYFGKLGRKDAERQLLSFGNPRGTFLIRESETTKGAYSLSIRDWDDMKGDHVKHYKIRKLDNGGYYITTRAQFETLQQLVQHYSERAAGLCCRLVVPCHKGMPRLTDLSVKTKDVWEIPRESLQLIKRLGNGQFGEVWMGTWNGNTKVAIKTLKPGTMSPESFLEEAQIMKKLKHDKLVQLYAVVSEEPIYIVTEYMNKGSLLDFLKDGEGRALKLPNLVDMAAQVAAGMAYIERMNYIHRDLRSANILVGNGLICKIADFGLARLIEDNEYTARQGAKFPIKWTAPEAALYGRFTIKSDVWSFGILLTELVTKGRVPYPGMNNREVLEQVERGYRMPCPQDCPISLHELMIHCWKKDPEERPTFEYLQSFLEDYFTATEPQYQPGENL
Experimental: as §1, §2, §3, §4, §5, §6

[13] = biological target: PCTAIRE1 kinase (h) (Homo sapiens (Human), UniProt Q00536); experiment: Kinase selectivity panel: PCTAIRE1 kinase (h); type: biochemical; conditions: 10 μM in duplicate, read-out: % inhibition of control values
Experimental: as §1, §2, §3, §4, §5, §6

[14] = biological target: CDC2/CDK1 (h) (cycB) (Homo sapiens (Human), UniProt P06493); experiment: Kinase selectivity panel: CDC2/CDK1 (h) (cycB); type: biochemical; conditions: 10 μM in duplicate, read-out: % inhibition of control values
Chain of CDC2/CDK1 (h) (cycB) (P06493 whole entry): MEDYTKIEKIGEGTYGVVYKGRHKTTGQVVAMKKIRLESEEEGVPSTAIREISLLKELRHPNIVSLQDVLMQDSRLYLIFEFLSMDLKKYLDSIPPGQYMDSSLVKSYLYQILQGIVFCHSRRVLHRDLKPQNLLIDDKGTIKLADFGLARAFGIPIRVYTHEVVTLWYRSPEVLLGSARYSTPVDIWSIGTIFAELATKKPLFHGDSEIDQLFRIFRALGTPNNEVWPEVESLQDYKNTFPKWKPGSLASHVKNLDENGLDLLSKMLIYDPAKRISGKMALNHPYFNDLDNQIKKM
Chain of CDC2/CDK1 (h) (cycB) (P14635 whole entry partner): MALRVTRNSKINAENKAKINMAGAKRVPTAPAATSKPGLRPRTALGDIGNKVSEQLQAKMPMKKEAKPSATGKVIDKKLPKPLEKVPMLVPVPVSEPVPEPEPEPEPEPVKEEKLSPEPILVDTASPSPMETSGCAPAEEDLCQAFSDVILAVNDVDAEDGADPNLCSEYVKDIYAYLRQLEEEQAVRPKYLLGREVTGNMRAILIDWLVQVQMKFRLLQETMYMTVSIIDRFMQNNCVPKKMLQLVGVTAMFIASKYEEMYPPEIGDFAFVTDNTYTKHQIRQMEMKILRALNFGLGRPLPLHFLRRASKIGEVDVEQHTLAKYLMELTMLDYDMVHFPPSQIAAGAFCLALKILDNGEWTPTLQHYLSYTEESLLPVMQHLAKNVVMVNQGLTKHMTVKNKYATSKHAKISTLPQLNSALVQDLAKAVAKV
Experimental: as §1, §2, §3, §4, §5, §6

[15] = biological target: CDK2 (h) (cycA) (Homo sapiens (Human), UniProt P24941); experiment: Kinase selectivity panel: CDK2 (h) (cycA); type: biochemical; conditions: 10 μM in duplicate, read-out: % inhibition of control values
Experimental: as §1, §2, §3, §4, §5, §6

[16] = biological target: CDK5/p35 (h) (Homo sapiens (Human), UniProt Q00535); experiment: Kinase selectivity panel: CDK5/p35 (h); type: biochemical; conditions: 10 μM in duplicate, read-out: % inhibition of control values
Experimental: as §1, §2, §3, §4, §5, §6

[17] = biological target: p38alpha kinase (h) (Homo sapiens (Human), UniProt Q16539); experiment: Kinase selectivity panel: p38alpha kinase (h); type: biochemical; conditions: 10 μM in duplicate, read-out: % inhibition of control values
Experimental: as §1, §2, §3, §4, §5, §6

[18] = system: AMPKalpha; experiment: Kinase selectivity panel: AMPKalpha; type: biochemical, human; conditions: 10 μM in duplicate
Experimental: as §1, §2, §3, §4, §5, §6

[19] = biological target: CaMK4 (h) (Homo sapiens (Human), UniProt Q16566); experiment: Kinase selectivity panel: CaMK4 (h); type: biochemical; conditions: 10 μM in duplicate, read-out: % inhibition of control values
Experimental: as §1, §2, §3, §4, §5, §6

[20] = biological target: Pim2 kinase (h) (Homo sapiens (Human), UniProt Q9P1W9); experiment: Kinase selectivity panel: Pim2 kinase (h); type: biochemical; conditions: 10 μM in duplicate, read-out: % inhibition of control values
Experimental: as §1, §2, §3, §4, §5, §6

[21] = biological target: MNK2 (h) (Homo sapiens (Human), UniProt Q9HBH9); experiment: Kinase selectivity panel: MNK2 (h); type: biochemical; conditions: 10 μM in duplicate, read-out: % inhibition of control values
Experimental: as §1, §2, §3, §4, §5, §6

[22] = biological target: Akt1/PKBalpha (h) (Homo sapiens (Human), UniProt P31749); experiment: Kinase selectivity panel: Akt1/PKBalpha (h); type: biochemical; conditions: 10 μM in duplicate, read-out: % inhibition of control values
Experimental: as §1, §2, §3, §4, §5, §6

[23] = biological target: PDK1 (h) (Homo sapiens (Human), UniProt O15530); experiment: Kinase selectivity panel: PDK1 (h); type: biochemical; conditions: 10 μM in duplicate, read-out: % inhibition of control values
Experimental: as §1, §2, §3, §4, §5, §6

[24] = biological target: RSK2 (h) (Homo sapiens (Human), UniProt P51812); experiment: Kinase selectivity panel: RSK2 (h); type: biochemical; conditions: 10 μM in duplicate, read-out: % inhibition of control values
Experimental: as §1, §2, §3, §4, §5, §6

[25] = biological target: PKCalpha (h) (Homo sapiens (Human), UniProt P17252); experiment: Kinase selectivity panel: PKCalpha (h); type: biochemical; conditions: 10 μM in duplicate, read-out: % inhibition of control values
Experimental: as §1, §2, §3, §4, §5, §6

[26] = biological target: PKCbeta 1 (h) (Homo sapiens (Human), UniProt P05771); experiment: Kinase selectivity panel: PKCbeta 1 (h); type: biochemical; conditions: 10 μM in duplicate, read-out: % inhibition of control values
Experimental: as §1, §2, §3, §4, §5, §6

[27] = biological target: CK1alpha (h) (Homo sapiens (Human), UniProt P48729); experiment: Kinase selectivity panel: CK1alpha (h); type: biochemical; conditions: 10 μM in duplicate, read-out: % inhibition of control values
Chain of CK1alpha (h) (P48729 whole entry): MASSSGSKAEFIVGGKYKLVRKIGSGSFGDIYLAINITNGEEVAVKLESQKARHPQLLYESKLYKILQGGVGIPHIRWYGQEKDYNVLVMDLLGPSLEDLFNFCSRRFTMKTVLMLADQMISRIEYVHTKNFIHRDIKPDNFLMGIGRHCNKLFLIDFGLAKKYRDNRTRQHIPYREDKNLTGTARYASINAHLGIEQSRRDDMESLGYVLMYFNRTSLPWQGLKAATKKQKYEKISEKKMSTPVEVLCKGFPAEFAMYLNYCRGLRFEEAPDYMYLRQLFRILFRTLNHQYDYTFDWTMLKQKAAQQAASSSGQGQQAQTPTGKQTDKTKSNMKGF
Experimental: as §1, §2, §3, §4, §5, §6

[28] = biological target: PAK1 (h) (Homo sapiens (Human), UniProt Q13153); experiment: Kinase selectivity panel: PAK1 (h); type: biochemical; conditions: 10 μM in duplicate, read-out: % inhibition of control values
Chain of PAK1 (h) (Q13153 whole entry): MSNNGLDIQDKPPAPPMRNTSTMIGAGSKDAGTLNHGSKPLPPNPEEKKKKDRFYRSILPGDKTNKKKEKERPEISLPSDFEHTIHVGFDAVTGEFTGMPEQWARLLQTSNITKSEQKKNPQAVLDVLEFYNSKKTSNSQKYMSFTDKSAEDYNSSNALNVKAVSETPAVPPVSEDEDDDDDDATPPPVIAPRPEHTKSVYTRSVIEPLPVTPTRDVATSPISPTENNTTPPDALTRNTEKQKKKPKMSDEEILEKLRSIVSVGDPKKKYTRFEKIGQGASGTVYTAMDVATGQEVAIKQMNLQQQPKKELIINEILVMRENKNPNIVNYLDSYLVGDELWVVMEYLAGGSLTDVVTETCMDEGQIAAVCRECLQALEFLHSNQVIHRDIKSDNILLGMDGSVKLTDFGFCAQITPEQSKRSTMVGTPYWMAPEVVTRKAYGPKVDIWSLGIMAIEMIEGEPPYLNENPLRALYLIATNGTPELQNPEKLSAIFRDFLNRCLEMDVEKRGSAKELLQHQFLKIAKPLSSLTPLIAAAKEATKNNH
Experimental: as §1, §2, §3, §4, §5, §6

[29] = biological target: HGK (h) (MAP4K4) (Homo sapiens (Human), UniProt O95819); experiment: Kinase selectivity panel: HGK (h) (MAP4K4); type: biochemical; conditions: 10 μM in duplicate, read-out: % inhibition of control values
Experimental: as §1, §2, §3, §4, §5, §6

[30] = biological target: TAOK2 (TAO1) (h) (Homo sapiens (Human), UniProt Q9UL54); experiment: Kinase selectivity panel: TAOK2 (TAO1) (h); type: biochemical; conditions: 10 μM in duplicate, read-out: % inhibition of control values
Experimental: as §1, §2, §3, §4, §5, §6

[31] = biological target: DLK1 (h) (MAP3K12) (Homo sapiens (Human), UniProt Q12852); experiment: Kinase selectivity panel: DLK1 (h) (MAP3K12); type: biochemical; conditions: 10 μM in duplicate, read-out: % inhibition of control values
Experimental: as §1, §2, §3, §4, §5, §6

[32] = biological target: IKKepsilon (h) (IKBKE) (Homo sapiens (Human), UniProt Q14164); experiment: Kinase selectivity panel: IKKepsilon (h) (IKBKE); type: biochemical; conditions: 10 μM in duplicate, read-out: % inhibition of control values
Experimental: as §1, §2, §3, §4, §5, §6

[33] = biological target: MYT1 kinase (h) (Homo sapiens (Human), UniProt Q99640); experiment: Kinase selectivity panel: MYT1 kinase (h); type: biochemical; conditions: 10 μM in duplicate, read-out: % inhibition of control values
Experimental: as §1, §2, §3, §4, §5, §6

[34] = biological target: AurB/Aur1 kinase (h) (Homo sapiens (Human), UniProt Q96GD4); experiment: Kinase selectivity panel: AurB/Aur1 kinase (h); type: biochemical; conditions: 10 μM in duplicate, read-out: % inhibition of control values
Chain of AurB/Aur1 kinase (h) (Q96GD4 whole entry): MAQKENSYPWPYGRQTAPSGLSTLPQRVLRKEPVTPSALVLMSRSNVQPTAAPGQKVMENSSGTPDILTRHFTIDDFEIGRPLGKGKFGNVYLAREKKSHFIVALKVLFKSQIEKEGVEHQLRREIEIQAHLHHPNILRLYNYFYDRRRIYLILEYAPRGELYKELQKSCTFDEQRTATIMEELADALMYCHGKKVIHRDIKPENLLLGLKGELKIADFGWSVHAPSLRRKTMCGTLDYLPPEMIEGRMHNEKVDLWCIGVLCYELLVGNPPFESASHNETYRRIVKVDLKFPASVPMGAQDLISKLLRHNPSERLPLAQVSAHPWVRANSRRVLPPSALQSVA
Experimental: as §1, §2, §3, §4, §5, §6

Chain of c-Met kinase (h) (P08581 25-1390): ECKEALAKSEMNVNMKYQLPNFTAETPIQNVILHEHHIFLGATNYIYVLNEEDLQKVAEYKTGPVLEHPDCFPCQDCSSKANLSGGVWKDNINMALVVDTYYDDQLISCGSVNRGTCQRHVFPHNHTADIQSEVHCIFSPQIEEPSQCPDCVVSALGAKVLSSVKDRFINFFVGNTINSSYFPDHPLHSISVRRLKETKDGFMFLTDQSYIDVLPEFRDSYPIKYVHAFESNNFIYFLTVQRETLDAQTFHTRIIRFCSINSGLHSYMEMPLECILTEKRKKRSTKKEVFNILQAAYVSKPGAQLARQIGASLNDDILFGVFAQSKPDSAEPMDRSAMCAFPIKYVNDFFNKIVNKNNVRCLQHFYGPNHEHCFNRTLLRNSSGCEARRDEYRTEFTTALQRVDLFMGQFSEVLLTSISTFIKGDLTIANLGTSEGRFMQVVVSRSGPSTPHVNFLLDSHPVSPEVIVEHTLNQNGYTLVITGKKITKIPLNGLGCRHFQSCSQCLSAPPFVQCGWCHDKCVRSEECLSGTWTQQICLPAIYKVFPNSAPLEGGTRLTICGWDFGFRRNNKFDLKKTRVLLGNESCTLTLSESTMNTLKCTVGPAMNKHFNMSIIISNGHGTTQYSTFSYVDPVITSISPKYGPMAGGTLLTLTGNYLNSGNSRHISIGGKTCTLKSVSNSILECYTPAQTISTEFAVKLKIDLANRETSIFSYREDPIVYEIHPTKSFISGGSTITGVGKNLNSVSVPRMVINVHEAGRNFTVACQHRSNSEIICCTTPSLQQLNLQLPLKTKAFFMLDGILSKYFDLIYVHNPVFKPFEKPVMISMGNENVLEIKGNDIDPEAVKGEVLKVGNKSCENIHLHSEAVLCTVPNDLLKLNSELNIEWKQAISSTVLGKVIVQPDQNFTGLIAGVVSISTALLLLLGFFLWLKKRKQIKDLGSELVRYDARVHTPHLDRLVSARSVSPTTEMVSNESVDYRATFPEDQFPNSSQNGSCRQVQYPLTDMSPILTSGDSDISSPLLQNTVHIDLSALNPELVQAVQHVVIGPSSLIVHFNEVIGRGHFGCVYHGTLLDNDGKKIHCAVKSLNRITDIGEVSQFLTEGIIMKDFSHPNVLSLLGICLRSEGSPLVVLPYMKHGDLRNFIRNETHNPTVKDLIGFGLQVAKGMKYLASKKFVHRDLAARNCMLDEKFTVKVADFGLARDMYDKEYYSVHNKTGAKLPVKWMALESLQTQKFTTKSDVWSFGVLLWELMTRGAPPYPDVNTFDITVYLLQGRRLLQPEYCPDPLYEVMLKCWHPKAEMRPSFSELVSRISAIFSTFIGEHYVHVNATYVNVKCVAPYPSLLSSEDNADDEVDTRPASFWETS

- inhibition at 10 µM [1]: 3%
- inhibition at 10 µM [2]: 0%
- inhibition at 10 µM [3]: 4%
- inhibition at 10 µM [4]: 0%
- inhibition at 10 µM [5]: 0%
- inhibition at 10 µM [6]: 0%
- inhibition at 10 µM [7]: 0%
- inhibition at 10 µM [8]: 1%
- inhibition at 10 µM [9]: 0%
- inhibition at 10 µM [10]: 0%
- inhibition at 10 µM [11]: 0%
- inhibition at 10 µM [12]: 0%
- inhibition at 10 µM [13]: 22%
- inhibition at 10 µM [14]: 7%
- inhibition at 10 µM [15]: 18%
- inhibition at 10 µM [16]: 19%
- inhibition at 10 µM [17]: 0%
- % inhibition of control values [18]: 16%
- inhibition at 10 µM [19]: 0%
- inhibition at 10 µM [20]: 3%
- inhibition at 10 µM [21]: 0%
- inhibition at 10 µM [22]: 0%
- inhibition at 10 µM [23]: 6%
- inhibition at 10 µM [24]: 0%
- inhibition at 10 µM [25]: 0%
- inhibition at 10 µM [26]: 0%
- inhibition at 10 µM [27]: 0%
- inhibition at 10 µM [28]: 1%
- inhibition at 10 µM [29]: 8%
- inhibition at 10 µM [30]: 3%
- inhibition at 10 µM [31]: 0%
- inhibition at 10 µM [32]: 0%
- inhibition at 10 µM [33]: 0%
- inhibition at 10 µM [34]: 0%
Structure (SMILES): COc1ccc2[nH]nc(C(=O)NCC3CCN(CC(=O)O)CC3)c2c1 [Compound 1, [4-({[(5-methoxy-1H-indazol-3-yl)-carbonyl]amino}methyl)piperidin-1-yl]acetic acid]
